Legend:
Assay in all cases: Growth on agar plates with different concentrations of AgNO3 or HAuCl4 (resistance assay)
Type in all cases: cell-based
Design in all cases: key: x = growth; (x) = weak growth
[1] = tested on: Xanthomonas campestris
Text: (§1) The growth of several microorganisms (e.g. Escherichia coli, Xanthomonas campestris, Cupriavidus metallidurans and Bacillus sphaericus) was monitored in the presence of the lids with coated pins. Escherichia coli and Xanthomonas campestris served as negative controls with regard to metal binding; Cupriavidus metallidurans as positive control. Additionally, Bacillus sphaericus was used as a positive control for silver binding. For Bacillus sphaericus the binding to gold particles and gold coated surfaces was observed earlier by the inventors. Cupriavidus metallidurans is a gram-negative, rod-shaped bacterium which has gold binding capacity as described in the literature (Reith et al., 2006). The species name metallidurans indicates its resistance to heavy metals and its ability to survive in the presence of gold and silver was investigated previously (Reith F, Rogers S L, McPhail D C and Webb D. (2006) “Biomineralization of gold: biofilms on bacterioform gold.” Science 313(5784): 233-236; Reith F, Etschmann B, Grosse C, Moors H, Benotmane M A, Monsieurs P, Grass G, Doonan C, Vogt S, Lai B, Martinez-Criado G, George G N, Nies D H, Mergeay M, Pring A, Southam G and Brugger J. (2009) “Mechanisms of gold biomineralization in the bacterium Cupriavidus metallidurans.” Proc Natl Acad Sci 106(42):17757-17762; Ledrich ML1, Stemmler S, Laval-Gilly P, Foucaud L, and Falla J (2005) “Precipitation of silver-thiosulfate complex and immobilization of silver by Cupriavidus metallidurans CH34.” Biometals 18(6): 643-650).
(§2) To investigate the tolerated concentration of silver and gold, the microorganisms were propagated in liquid medium and streaked on agar plates with different concentrations of AgNO3 or HAuCl4, respectively.

[2] = tested on: Escherichia coli
Text: as §1, §2

[3] = tested on: Bacillus sphaericus
Text: as §1, §2

[4] = tested on: Cupriavidus metallidurans
Text: as §1, §2

## O=[N+]([O-])[O-].[Ag+] [AgNO3]
[1]; 2 μM AgNO3, agar plate
  Microbial growth dependence on AgNO3 concentration: x
[1]; 10 μM AgNO3, agar plate
  Microbial growth dependence on AgNO3 concentration: x
[1]; 20 μM AgNO3, agar plate
  Microbial growth dependence on AgNO3 concentration: x
[1]; 50 μM AgNO3, agar plate
  Microbial growth dependence on AgNO3 concentration: x
[1]; 100 μM AgNO3, agar plate
  Microbial growth dependence on AgNO3 concentration: x
[2]; 2 μM AgNO3, agar plate
  Microbial growth dependence on AgNO3 concentration: x
[2]; 10 μM AgNO3, agar plate
  Microbial growth dependence on AgNO3 concentration: x
[2]; 20 μM AgNO3, agar plate
  Microbial growth dependence on AgNO3 concentration: x
[2]; 50 μM AgNO3, agar plate
  Microbial growth dependence on AgNO3 concentration: x
[2]; 100 μM AgNO3, agar plate
  Microbial growth dependence on AgNO3 concentration: x
[3]; 2 μM AgNO3, agar plate
  Microbial growth dependence on AgNO3 concentration: x
[3]; 10 μM AgNO3, agar plate
  Microbial growth dependence on AgNO3 concentration: x
[3]; 20 μM AgNO3, agar plate
  Microbial growth dependence on AgNO3 concentration: x
[3]; 50 μM AgNO3, agar plate
  Microbial growth dependence on AgNO3 concentration: x
[3]; 100 μM AgNO3, agar plate
  Microbial growth dependence on AgNO3 concentration: x
[3]; 150 μM AgNO3, agar plate
  Microbial growth dependence on AgNO3 concentration: x
[4]; 2 μM AgNO3, agar plate
  Microbial growth dependence on AgNO3 concentration: x
[4]; 10 μM AgNO3, agar plate
  Microbial growth dependence on AgNO3 concentration: x
[4]; 20 μM AgNO3, agar plate
  Microbial growth dependence on AgNO3 concentration: x
[4]; 50 μM AgNO3, agar plate
  Microbial growth dependence on AgNO3 concentration: x
[4]; 100 μM AgNO3, agar plate
  Microbial growth dependence on AgNO3 concentration: x
[4]; 150 μM AgNO3, agar plate
  Microbial growth dependence on AgNO3 concentration: x
[4]; 200 μM AgNO3, agar plate
  Microbial growth dependence on AgNO3 concentration: (x)

## [Au+3].[Cl-].[Cl-].[Cl-].[Cl-].[H+] [HAuCl4]
[1]; 2 μM HAuCl4, agar plate
  Microbial growth dependence on HAuCl4 concentration: x
[1]; 20 μM HAuCl4, agar plate
  Microbial growth dependence on HAuCl4 concentration: x
[1]; 100 μM HAuCl4, agar plate
  Microbial growth dependence on HAuCl4 concentration: x
[1]; 200 μM HAuCl4, agar plate
  Microbial growth dependence on HAuCl4 concentration: x
[1]; 300 μM HAuCl4, agar plate
  Microbial growth dependence on HAuCl4 concentration: x
[2]; 2 μM HAuCl4, agar plate
  Microbial growth dependence on HAuCl4 concentration: x
[2]; 20 μM HAuCl4, agar plate
  Microbial growth dependence on HAuCl4 concentration: x
[2]; 100 μM HAuCl4, agar plate
  Microbial growth dependence on HAuCl4 concentration: x
[2]; 200 μM HAuCl4, agar plate
  Microbial growth dependence on HAuCl4 concentration: x
[2]; 300 μM HAuCl4, agar plate
  Microbial growth dependence on HAuCl4 concentration: x
[3]; 2 μM HAuCl4, agar plate
  Microbial growth dependence on HAuCl4 concentration: x
[3]; 20 μM HAuCl4, agar plate
  Microbial growth dependence on HAuCl4 concentration: x
[3]; 100 μM HAuCl4, agar plate
  Microbial growth dependence on HAuCl4 concentration: x
[3]; 200 μM HAuCl4, agar plate
  Microbial growth dependence on HAuCl4 concentration: x
[4]; 2 μM HAuCl4, agar plate
  Microbial growth dependence on HAuCl4 concentration: x
[4]; 20 μM HAuCl4, agar plate
  Microbial growth dependence on HAuCl4 concentration: x
[4]; 100 μM HAuCl4, agar plate
  Microbial growth dependence on HAuCl4 concentration: x
[4]; 200 μM HAuCl4, agar plate
  Microbial growth dependence on HAuCl4 concentration: x
[4]; 300 μM HAuCl4, agar plate
  Microbial growth dependence on HAuCl4 concentration: x
[4]; 400 μM HAuCl4, agar plate
  Microbial growth dependence on HAuCl4 concentration: x
[4]; 500 μM HAuCl4, agar plate
  Microbial growth dependence on HAuCl4 concentration: x
